The numbers were not newly measured in PMC12843750, “Integrated Biomimetic 2D-LC and Permeapad® Assay for Profiling the Transdermal Diffusion of Pharmaceutical Compounds” (Molecules, 2026), which cites them from elsewhere.

For this series the following is noted: ref Drugbank.

A word on the pKa: it is the negative logarithm of the acid dissociation constant. Consider `CC(=O)Nc1ccc(O)cc1` [Paracetamol], for which the pKa is 9.46.
